Measurements taken from patent publication US7973053B2, “Nerve cell death inhibitor” (priority 2007, dated 2011).
Counter-ions that a name gives are not always drawn.

Key:
[1] = tested on: nerve cells in the hippocampus CA1 region; experiment: rat model for revascularization of vertebral-carotid artery occlusion (4-point ischemia), nerve cell death in hippocampus CA1; type: in vivo; details: oral once a day for 6 days
Procedure: Seven-week old Crlj:WI male rats (Charles River Laboratories Japan Inc.) were obtained, and they were provided to the experiment after being subjected to quarantine (for 5 days) and acclimatization (for 7 days or more). Throughout the experimentation period, the rats were bred in a breeding chamber maintained under a light-dark cycle (light period under room light: 6:00 AM to 6:00 PM), at a temperature of 23±3° C. and a humidity of 55±15%, and were allowed to freely take in solid feedstuff (CRF-1; Oriental Yeast Co., Ltd.) and drinking water (tap water).
Pitavastatin and ARICEPT were each suspended in a 0.5% (w/v) aqueous solution of carboxymethylcellulose sodium (hereinafter, CMC-Na, SIGMA), and prepared just before use such that the amount of administration would be 5 mL/kg.
The day of grouping was counted as the first day of administration, and the test drug was orally administered once a day for 6 days, thus 6 times in total. The normal group and the solvent control group were administered with a 0.5% (w/v) aqueous solution of CMC-Na.
On the fifth day of administration, 35 mg/kg of pentobarbital sodium (Nembutal (registered trademark) injectable solution, Dainippon Pharmaceutical Co., Ltd.) was intraperitoneally administered to the rats excluding those in the normal group. The right and left alar foramens were exposed from the first cervical spine part under anesthesia, and the vertebral arteries were thermally solidified using a soldering iron, so as to permanently occlude the vertebral arteries on both sides. […]
The fixated brains were dehydrated, infiltrated and embedded in paraffin, and a section having a thickness 10 μm was produced from the vicinity of Bregma −3.3 mm. […] The number of nerve cells was counted using an image analyzer (Win ROOF V5.6, Mitani Corporation), and the length of CA1 was measured.
According to the following formula, the number of nerve cells per unit length was determined, and the average value and standard deviation were calculated for each group. […]

nerve cells = details: pitavastatin 3 mg/kg single administration; Non-Patent Document 9; cited from earlier work

Row | Compound | number of nerve cells in the hippocampus CA1 region (cells/mm) vs solvent control group ([1]; Comparative Example 1, ARICEPT 0.5 mg/kg single administration, FIG. 2) | number of nerve cells in the hippocampus CA1 region (cells/mm) vs solvent control group ([1]; Example 1, ARICEPT 0.5 mg/kg single administration, FIG. 1) | number of nerve cells in the hippocampus CA1 region (cells/mm) vs solvent control group ([1]; Example 1, pitavastatin 3 mg/kg single administration, FIG. 1) | increase in the number of nerve cells, as reported in the literature (nerve cells)
1 | COc1cc2c(cc1OC)C(=O)C(CC1CCN(Cc3ccccc3)CC1)C2 (stereo not shown) [ARICEPT, donepezil hydrochloride] | not significant | not significant |  | 
2 | O=C([O-])C[C@H](O)C[C@H](O)/C=C/c1c(C2CC2)nc2ccccc2c1-c1ccc(F)cc1.O=C([O-])C[C@H](O)C[C@H](O)/C=C/c1c(C2CC2)nc2ccccc2c1-c1ccc(F)cc1.[Ca+2] [pitavastatin, pitavastatin calcium] |  |  | not significant | presence of significant difference
